Assay results: US11667606B2, “Thyromimetics” (Autobahn Therapeutics, Inc., priority 2019, dated 2023)

Key:
TRα = target: T1, TRα (Homo sapiens, UniProt P10827); assay: Thyroid-hormone reporter-gene assay, TRα (Gal4 DBD hybrid, luciferase, HEK293); type: cell-based; details: reporter cells derived from HEK293, 24 hr incubation, luciferase readout
T1 construct: expressed in transfected cells; host or cells: HEK293
T1 sequence (P10827 128-410 isoform P10827-2 limits assumed): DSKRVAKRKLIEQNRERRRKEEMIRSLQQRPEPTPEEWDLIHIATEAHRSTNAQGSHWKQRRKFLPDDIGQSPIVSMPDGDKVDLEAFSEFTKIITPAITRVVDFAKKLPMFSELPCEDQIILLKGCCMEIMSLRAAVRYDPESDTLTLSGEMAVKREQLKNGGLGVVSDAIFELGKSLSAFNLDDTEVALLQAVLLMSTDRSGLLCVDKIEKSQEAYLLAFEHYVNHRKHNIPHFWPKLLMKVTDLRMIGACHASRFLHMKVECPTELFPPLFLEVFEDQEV
Description: (§1) Compounds were tested for thyroid-hormone receptor activity using TR reporter-gene assays. Reporter cells used in the assays express a TR-receptor hybrid (either TRα or TRβ) in which the native N-terminal DNA binding domain (DBD) has been replaced with that of the yeast Gal4 DBD. The reporter gene, firefly luciferase, is functionally linked to the Gal4 upstream activation sequence (UAS). Both cell lines were derived from human embryonic kidney (HEK293).
(§2) A suspension of reporter cells was prepared in cell recovery medium containing 10% charcoal-stripped FBS, and dispensed into assay plates. The plates were pre-incubated for 6 hours in a cell culture incubator (37° C./5% CO2/85% humidity).
(§3) These intermediate stocks were subsequently diluted directly into compound screening medium containing 10% charcoal-stripped FBS to generate “2×-concentration” treatment media (containing 0.2, 0.4 or 0.8% DMSO).
(§4) At the end of the pre-incubation period, culture media were discarded from the assay plates, and all wells received 100 μl of compound screening medium. 100 μl of each of the previously prepared “2×-concentration” treatment media were dispensed into duplicate assay wells, thereby achieving the desired final treatment concentrations. The final concentration of DMSO in all assay wells was 0.1, 0.2 or 0.4%. Assay plates were incubated for 24 hr in a cell culture incubator (37° C./5% CO2/85% humidity).
(§5) At the 24 h assay endpoint, treatment media were discarded and […] of luciferase detection reagent was added. Relative luminometer units (RLUs) were quantified from each assay well.

TRβ = target: T2, TRβ (Homo sapiens, UniProt P10828); assay: Thyroid-hormone reporter-gene assay, TRβ (Gal4 DBD hybrid, luciferase, HEK293); type: cell-based; details: for T3-SI, selectivity index (SI) calculated as EC50 (TRα)/EC50 (TRβ): TRβ over TRα selectivity from reporter-gene EC50 values; for EC50: reporter cells derived from HEK293, 24 hr incubation, luciferase readout
T2 construct: expressed in transfected cells; host or cells: HEK293
T2 sequence (P10828 217-461 limits assumed): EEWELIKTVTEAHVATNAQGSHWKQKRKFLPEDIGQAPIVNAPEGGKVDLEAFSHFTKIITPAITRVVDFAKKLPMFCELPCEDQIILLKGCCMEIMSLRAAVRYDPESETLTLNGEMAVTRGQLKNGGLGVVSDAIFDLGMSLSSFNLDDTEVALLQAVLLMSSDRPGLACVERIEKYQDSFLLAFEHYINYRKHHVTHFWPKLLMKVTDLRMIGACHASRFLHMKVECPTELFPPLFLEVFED
Description: as §1, §2, §3, §4, §5

Row | EC50 (TRα) | T3-SI, selectivity index (SI) calculated as EC50 (TRα)/EC50 (TRβ) (TRβ) | EC50 (TRβ) | Compound
1 | > 1000 nM | ++ (3X < T3-SI ≤ 30X) | 100 to 1000 nM | C[C@@H](c1ccc(F)cc1)c1cc(Cc2c(Cl)cc(OCC(=O)O)cc2Cl)ccc1O (single isomer, unassigned) [Compound 74]
2 | 10 to 100 nM | ++ (3X < T3-SI ≤ 30X) | < 10 nM | C[C@H](c1ccc(F)cc1)c1cc(Cc2c(Cl)cc(OCC(=O)O)cc2Cl)ccc1O (single isomer, unassigned) [Compound 75]
3 | 100 to 1000 nM | ++ (3X < T3-SI ≤ 30X) | 100 to 1000 nM | O=C(O)COc1cc(Cl)c(Cc2ccc(O)c(-c3cccc(C(F)(F)F)c3)c2)c(Cl)c1 [Compound 1, 2-(3,5-dichloro-4-((6-hydroxy-3′-(trifluoromethyl)-[1,1′-biphenyl]-3-yl)methyl)phenoxy)acetic Acid]
4 | > 1000 nM | +++ (T3-SI > 30X) | 100 to 1000 nM | CCc1cccc(-c2cc(Cc3c(Cl)cc(OCC(=O)O)cc3Cl)ccc2O)c1 [Compound 3, 2-(3,5-dichloro-4-((3′-ethyl-6-hydroxy-[1,1′-biphenyl]-3-yl)methyl)phenoxy)acetic Acid]
5 | > 1000 nM | +++ (T3-SI > 30X) | 100 to 1000 nM | O=C(O)COc1cc(Cl)c(Cc2ccc(O)c(-c3cccc(OC(F)F)c3)c2)c(Cl)c1 [Compound 5, 2-(3,5-dichloro-4-((3′-(difluoromethoxy)-6-hydroxy-[1,1′-biphenyl]-3-yl)methyl)phenoxy)acetic Acid]
6 |  |  | > 1000 nM | CCOC(=O)c1cccc(-c2cc(Cc3c(Cl)cc(OCC(=O)O)cc3Cl)ccc2O)c1 [Compound 6, 2-(3,5-dichloro-4-((3′-(ethoxycarbonyl)-6-hydroxy-[1,1′-biphenyl]-3-yl)methyl)phenoxy)acetic Acid]
7 | > 1000 nM | ++ (3X < T3-SI ≤ 30X) | > 1000 nM | COc1cccc(-c2cc(Cc3c(Cl)cc(OCC(=O)O)cc3Cl)ccc2O)c1 [Compound 7, 2-(3,5-dichloro-4-((6-hydroxy-3′-methoxy-[1,1′-biphenyl]-3-yl)methyl)phenoxy)acetic Acid]
8 |  |  | > 1000 nM | O=C(O)COc1cc(Cl)c(Cc2ccc(O)c(-c3cccc(CO)c3)c2)c(Cl)c1 [Compound 8, 2-(3,5-dichloro-4-((6-hydroxy-3′-(hydroxymethyl)-[1,1′-biphenyl]-3-yl)methyl)phenoxy)acetic Acid]
9 |  |  | > 1000 nM | CC(=O)Nc1cccc(-c2cc(Cc3c(Cl)cc(OCC(=O)O)cc3Cl)ccc2O)c1 [Compound 9, 2-(4-((3′-acetamido-6-hydroxy-[1,1′-biphenyl]-3-yl)methyl)-3,5-dichlorophenoxy)acetic Acid]
10 | > 1000 nM |  | > 1000 nM | CC(=O)c1cccc(-c2cc(Cc3c(Cl)cc(OCC(=O)O)cc3Cl)ccc2O)c1 [Compound 11, 2-(4-((3′-acetyl-6-hydroxy-[1,1′-biphenyl]-3-yl)methyl)-3,5-dichlorophenoxy)acetic Acid]
11 | > 1000 nM | +++ (T3-SI > 30X) | 100 to 1000 nM | O=C(O)COc1cc(Cl)c(Cc2ccc(O)c(-c3cccc(OC(F)(F)F)c3)c2)c(Cl)c1 [Compound 12, 2-(3,5-dichloro-4-((6-hydroxy-3′-(trifluoromethoxy)-[1,1′-biphenyl]-3-yl)methyl)phenoxy)acetic Acid]
12 | > 1000 nM | +++ (T3-SI > 30X) | 100 to 1000 nM | CC(C)c1cccc(-c2cc(Cc3c(Cl)cc(OCC(=O)O)cc3Cl)ccc2O)c1 [Compound 13, 2-(3,5-dichloro-4-((6-hydroxy-3′-isopropyl-[1,1′-biphenyl]-3-yl)methyl)phenoxy)acetic Acid]
13 |  |  | > 1000 nM | CS(=O)(=O)c1cccc(-c2cc(Cc3c(Cl)cc(OCC(=O)O)cc3Cl)ccc2O)c1 [Compound 14, 2-(3,5-dichloro-4-((6-hydroxy-3′-(methylsulfonyl)-[1,1′-biphenyl]-3-yl)methyl)phenoxy)acetic Acid]
14 |  |  | > 1000 nM | COCc1cccc(-c2cc(Cc3c(Cl)cc(OCC(=O)O)cc3Cl)ccc2O)c1 [Compound 15, 2-(3,5-dichloro-4-((6-hydroxy-3′-(methoxymethyl)-[1,1′-biphenyl]-3-yl)methyl)phenoxy)acetic Acid]
15 | > 1000 nM | +++ (T3-SI > 30X) | 100 to 1000 nM | CCCc1cccc(-c2cc(Cc3c(Cl)cc(OCC(=O)O)cc3Cl)ccc2O)c1 [Compound 16, 2-(3,5-dichloro-4-((6-hydroxy-3′-propyl-[1,1′-biphenyl]-3-yl)methyl)phenoxy)acetic Acid]
16 | > 1000 nM | ++ (3X < T3-SI ≤ 30X) | 100 to 1000 nM | Cc1cccc(-c2cc(Cc3c(Cl)cc(OCC(=O)O)cc3Cl)ccc2O)c1 [Compound 17, 2-(3,5-dichloro-4-((6-hydroxy-3′-methyl-[1,1′-biphenyl]-3-yl)methyl)phenoxy)acetic Acid]
17 | 100 to 1000 nM | ++ (3X < T3-SI ≤ 30X) | 10 to 100 nM | N#Cc1cccc(-c2cc(Cc3c(Cl)cc(OCC(=O)O)cc3Cl)ccc2O)c1 [Compound 19, 2-(3,5-dichloro-4-((3′-cyano-6-hydroxy-[1,1′-biphenyl]-3-yl)methyl)phenoxy)acetic Acid]
18 | > 1000 nM | ++ (3X < T3-SI ≤ 30X) | 100 to 1000 nM | C=Cc1cccc(-c2cc(Cc3c(Cl)cc(OCC(=O)O)cc3Cl)ccc2O)c1 [Compound 21, 2-(3,5-dichloro-4-((6-hydroxy-3′-vinyl-[1,1′-biphenyl]-3-yl)methyl)phenoxy)acetic Acid]
19 |  |  | > 1000 nM | O=C(O)COc1cc(Cl)c(Cc2ccc(O)c(-c3cccc(C(F)(F)C(F)(F)F)c3)c2)c(Cl)c1 [Compound 28, 2-(3,5-dichloro-4-((6-hydroxy-3′-(perfluoroethyl)-[1,1′-biphenyl]-3-yl)methyl)phenoxy)acetic Acid]
20 |  |  | > 1000 nM | O=C(O)COc1cc(Cl)c(Cc2ccc(O)c(-c3ccc(C(F)(F)F)s3)c2)c(Cl)c1 [Compound 37]
21 |  |  | > 1000 nM | Cc1ccoc1-c1cc(Cc2c(Cl)cc(OCC(=O)O)cc2Cl)ccc1O [Compound 44, 2-(3,5-dichloro-4-(4-hydroxy-3-(3-methylfuran-2-yl)benzyl)phenoxy)acetic Acid]
22 |  |  | > 1000 nM | O=C(O)COc1cc(Cl)c(Cc2ccc(O)c(-c3ccc(F)c(C(F)(F)F)c3)c2)c(Cl)c1 [Compound 48, 2-(3,5-dichloro-4-((4′-fluoro-6-hydroxy-3′-(trifluoromethyl)-[1,1′-biphenyl]-3-yl)methyl)phenoxy)acetic acid]
23 |  |  | 100 to 1000 nM | O=C(O)COc1cc(Cl)c(Cc2ccc(O)c(-c3cc(F)cc(C(F)(F)F)c3)c2)c(Cl)c1 [Compound 50, 2-(3,5-dichloro-4-((3′-fluoro-6-hydroxy-5′-(trifluoromethyl)-[1,1′-biphenyl]-3-yl)methyl)phenoxy)acetic Acid]
24 |  |  | > 1000 nM | O=C(O)COc1cc(Cl)c(Cc2ccc(O)c(-c3ccc(F)c(OC(F)F)c3)c2)c(Cl)c1 [Compound 55, 2-(3,5-dichloro-4-((3′-(difluoromethoxy)-4′-fluoro-6-hydroxy-[1,1′-biphenyl]-3-yl)methyl)phenoxy)acetic Acid]
25 |  |  | > 1000 nM | N#Cc1ccc(Cc2cc(Cc3c(Cl)cc(OCC(=O)O)cc3Cl)ccc2O)cc1 [Compound 80, 2-(3,5-dichloro-4-(3-(4-cyanobenzyl)-4-hydroxybenzyl)phenoxy)acetic Acid]
26 |  |  | > 1000 nM | Cc1ccc(Cc2cc(Cc3c(Cl)cc(OCC(=O)O)cc3Cl)ccc2O)cc1 [Compound 92, 2-(3,5-dichloro-4-(4-hydroxy-3-(4-methylbenzyl)benzyl)phenoxy)acetic Acid]
27 |  |  | > 1000 nM | O=C(O)COc1cc(Cl)c(Cc2ccc(O)c(Cc3cncnc3)c2)c(Cl)c1 [Compound 94, 2-(3,5-dichloro-4-(4-hydroxy-3-(pyrimidin-5-ylmethyl)benzyl)phenoxy) acetic Acid]
28 |  |  | > 1000 nM | O=C(O)COc1cc(Cl)c(Cc2ccc(O)c(Cc3ccc(CC(F)(F)F)cc3)c2)c(Cl)c1 [Compound 96, 2-(3,5-dichloro-4-(4-hydroxy-3-(4-(2,2,2-trifluoroethyl)benzyl)benzyl)phenoxy)acetic Acid]
